Measured values: article PMC7515921, “MFSD7C switches mitochondrial ATP synthesis to thermogenesis in response to heme” (Nature Communications, 2020)

Biological target: T1, MFSD7C (major facilitator superfamily domain containing 7C; FLVCR2; SLC49A2) (Homo sapiens, UniProt Q9UPI3)
T1 construct: N-terminal domain (NTD), amino acids 1–84
T1 sequence (Q9UPI3 1-84): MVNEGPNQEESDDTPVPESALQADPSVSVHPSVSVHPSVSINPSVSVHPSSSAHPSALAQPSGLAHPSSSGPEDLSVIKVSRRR
Test: ITC with purified NTD; also heme absorbance-shift (Soret/Q band) and gel-filtration co-elution
Assay type: binding

C=CC1=C(C)C2=Cc3c(C=C)c(C)c4[n]3[Fe][n]3c(c(C)c(CCC(=O)O)c3=CC3=NC(=C4)C(C)=C3CCC(=O)O)=CC1=N2 [heme]
Kd: ~1 µM
